“And” between values parts separate entries of the source, which are not always exact repeats. Identical values can stand only once. ± gives the expanded uncertainty stated by the source.
What was measured:
[1] = 101.33 kPa, Liquid; for speed of sound: Sing-around technique in a fixed-path interferometer; for mass density: Vibrating tube method
[2] = refractive index (Na D-line) (dimensionless); conditions: 101.33 kPa, Liquid, Standard Abbe refractometry
[3] = refractive index (Na D-line) (dimensionless); xn = mol fraction of the nth substance listed; conditions: 101 kPa, Liquid, Standard Abbe refractometry, x2 = 0
[4] = xn = mol fraction of the nth substance listed; conditions: Liquid, x2 = 0; for speed of sound: Sing-around technique in a fixed-path interferometer; for mass density: Vibrating tube method

C=CC(C)(O)CCC=C(C)C (stereo unspecified) [3,7-dimethyl-1,6-octadien-3-ol]
Conditions | mass density, [1] [kg/m3] | refractive index, [2] | speed of sound, [1] [m/s]
283.15 K | 869.39 ± 0.63 | 1.46659 ± 0.0005 and 1.4666 ± 0.0005 | 1370.3 ± 2
298.15 K | 857 ± 0.62 | 1.45946 ± 0.0005 | 1315.1 ± 2
313.15 K | 844.29 ± 0.61 | 1.45215 ± 0.0005 | 1260.8 ± 2
328.15 K | 831.31 ± 0.6 | 1.44473 ± 0.0005 | 1207.6 ± 2

CCCO [propan-1-ol] + C=CC(C)(O)CCC=C(C)C
[3]
Conditions | refractive index
283.15 K | 1.38906 ± 0.00032
298.15 K | 1.38288 ± 0.00032
313.15 K | 1.3766 ± 0.00032
328.15 K | 1.37015 ± 0.00032

[4]
Conditions | mass density, 101 kPa [kg/m3] | mass density, 20000 kPa [kg/m3] | mass density, 25000 kPa [kg/m3] | mass density, 30000 kPa [kg/m3] | mass density, 35000 kPa [kg/m3] | mass density, 40000 kPa [kg/m3] | speed of sound, 101 kPa [m/s]
283.15 K | 811.52 ± 0.13 | 825.3 ± 1 | 828.5 ± 1 | 831.5 ± 1 | 834.5 ± 1 | 837.4 ± 1.1 | 1258 ± 0.7
298.15 K | 799.56 ± 0.13 | 814.3 ± 1 | 817.8 ± 1 | 821 ± 1 | 824.1 ± 1.1 | 827.3 ± 1.1 | 1206.3 ± 0.7
313.15 K | 787.34 ± 0.14 | 803.3 ± 1 | 806.9 ± 1 | 810.4 ± 1 | 813.8 ± 1.1 | 817 ± 1.1 | 1156.8 ± 0.7
328.15 K | 774.69 ± 0.14 | 792.1 ± 1 | 795.9 ± 1 | 799.6 ± 1.1 | 803.2 ± 1.1 | 806.6 ± 1.1 | 1106.8 ± 0.7

CCCO [propan-1-ol]
Conditions | mass density, [1] [kg/m3] | refractive index, [2] | speed of sound, [1] [m/s]
283.15 K | 811.52 ± 0.13 | 1.38906 ± 0.00032 | 1257.9 ± 0.7
298.15 K | 799.56 ± 0.13 | 1.38288 ± 0.00032 | 1206.3 ± 0.7
313.15 K | 787.33 ± 0.14 | 1.3766 ± 0.00032 | 1156.8 ± 0.7
328.15 K | 774.69 ± 0.14 | 1.37015 ± 0.00032 | 1106.8 ± 0.7

Reference: the NIST ThermoML archive (doi:10.1016/j.jct.2010.11.007)
